For 24 compounds, IC50 results are on record in ChEMBL document CHEMBL4622852, “Design and synthesis of novel proline based factor XIa selective inhibitors as leads for potential new anticoagulants” (Bioorg Med Chem Lett, 2020).

One test deals with Coagulation factor XI (Homo sapiens, UniProt P03951). In words: Inhibition of factor 11a (unknown origin).
The target in a further test is Prothrombin (Homo sapiens, UniProt P00734). In words: Inhibition of thrombin (unknown origin).

SMILES strings stand for the structures.

Chain of Coagulation factor XI (P03951 19-387 limits assumed): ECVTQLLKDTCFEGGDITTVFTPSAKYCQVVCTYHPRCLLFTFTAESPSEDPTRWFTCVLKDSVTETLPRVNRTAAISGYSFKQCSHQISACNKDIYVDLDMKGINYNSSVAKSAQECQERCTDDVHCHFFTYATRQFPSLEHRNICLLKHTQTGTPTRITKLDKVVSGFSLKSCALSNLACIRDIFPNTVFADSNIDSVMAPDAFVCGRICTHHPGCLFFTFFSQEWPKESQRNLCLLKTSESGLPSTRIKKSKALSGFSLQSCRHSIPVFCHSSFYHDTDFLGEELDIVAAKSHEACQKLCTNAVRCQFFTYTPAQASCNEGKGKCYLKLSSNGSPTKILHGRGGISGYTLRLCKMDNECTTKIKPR
Chain of Coagulation factor XI (P03951 388-625 limits assumed): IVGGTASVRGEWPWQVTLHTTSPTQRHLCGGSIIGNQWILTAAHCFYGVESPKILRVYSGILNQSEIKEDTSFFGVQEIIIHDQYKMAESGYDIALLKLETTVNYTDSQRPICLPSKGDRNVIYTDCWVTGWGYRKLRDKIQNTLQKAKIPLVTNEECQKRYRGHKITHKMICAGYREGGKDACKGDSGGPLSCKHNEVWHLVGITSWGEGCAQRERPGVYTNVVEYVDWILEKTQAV

At Coagulation factor XI, `CC(C)C[C@@H](NC1CCCCC1)C(=O)N1C[C@@](C)(O)C[C@H]1C(=O)NCc1ccc2c(N)nccc2c1` returned an IC50 of 49 nM. As to `CC(C)CN[C@H](CC(C)C)C(=O)N1CCC[C@H]1C(=O)NCc1ccc2c(N)nccc2c1`, the half-inhibitory concentration (IC50) is 2690 nM at Coagulation factor XI and 37 nM at Prothrombin.

With `CC(C)C[C@@H](NC1CCCC1)C(=O)N1CCC[C@H]1C(=O)NCc1ccc2c(N)nccc2c1`, the 50% inhibitory concentration (IC50) against Coagulation factor XI was found to be 1380 nM; on Prothrombin, 38 nM. For `CO[C@H]1C[C@@H](C(=O)NCc2ccc3c(N)nccc3c2)N(C(=O)[C@@H](CC(C)C)NC2CCCCC2)C1` the same measures were 263 nM and over 5000 nM. On the same counts, the results for `CC(C)C[C@@H](NC1CCC1)C(=O)N1CCC[C@H]1C(=O)NCc1ccc2c(N)nccc2c1` are 3310 nM and 44 nM. For `CC(C)C[C@@H](NC1CCCCC1)C(=O)N1C[C@@H](F)C[C@H]1C(=O)NCc1ccc2c(N)nccc2c1` the same measures were 437 nM and over 5000 nM. Consider `CC(C)C[C@@H](NC1CCCCC1)C(=O)N1CC[C@H]1C(=O)NCc1ccc2c(N)nccc2c1`, for which the half-maximal inhibitory concentration (IC50) at Coagulation factor XI is 1100 nM; against Prothrombin, 3 nM. Consider `CC[C@H](C)[C@@H](NC1CCCCC1)C(=O)N1CCC[C@H]1C(=O)NCc1ccc2c(N)nccc2c1`, for which the IC50 at Coagulation factor XI turned out to be 347 nM.

On Coagulation factor XI, `O=C(NCc1cc(Cl)ccc1-n1cnnn1)[C@@H]1CCCN1C(=O)[C@@H](CC1CCCCC1)NC1CCCCC1` showed a 50% inhibitory concentration (IC50) of over 30000 nM. With `CC(C)C[C@@H](NC1CCC(F)(F)CC1)C(=O)N1CCC[C@H]1C(=O)NCc1ccc2c(N)nccc2c1`, the half-maximal inhibitory concentration (IC50) on Coagulation factor XI amounted to 417 nM; at Prothrombin, 120 nM. In the case of `CC(C)C[C@@H](NC1CCCCC1)C(=O)N1C[C@@H](O)C[C@H]1C(=O)NCc1ccc2c(N)nccc2c1`, the results for the half-inhibitory concentration (IC50) on Coagulation factor XI and at Prothrombin were 100 nM and 1000 nM, respectively. On the same counts, the results for `Nc1nccc2cc(CNC(=O)[C@@H]3CCCN3C(=O)[C@H](NC3CCCCC3)C3CCOCC3)ccc12` are 224 nM and 2 nM. On the same counts, the results for `Nc1nccc2cc(CNC(=O)[C@@H]3CCCN3C(=O)[C@@H](CC3CC3)NC3CCCCC3)ccc12` are 98 nM and 6 nM. For `CCC[C@@H](NC1CCCCC1)C(=O)N1CCC[C@H]1C(=O)NCc1ccc2c(N)nccc2c1` the same measures were 171 nM and 9 nM. For `CCS(=O)(=O)N[C@H](CC(C)C)C(=O)N1CCC[C@H]1C(=O)NCc1ccc2c(N)nccc2c1`, the IC50 was found to be 794 nM at Coagulation factor XI and 24 nM against Prothrombin.

With `Nc1nccc2cc(CNC(=O)[C@@H]3CCCN3C(=O)[C@H](NC3CCCCC3)C3CCCCC3)ccc12`, the IC50 amounted to 91 nM on Coagulation factor XI and 6 nM against Prothrombin. On Coagulation factor XI, `CC(C)C[C@@H](NC1CCCCC1)C(=O)N1C[C@@H](C)C[C@H]1C(=O)NCc1ccc2c(N)nccc2c1` had an IC50 of 2340 nM. As to `CC(C)C[C@@H](NC1CCCCC1)C(=O)N1CCC[C@H]1C(=O)NCc1ccc2c(N)nccc2c1`, the concentration for half-maximal inhibition (IC50) on Coagulation factor XI was determined as 60 nM; against Prothrombin, 5 nM. For `CC(C)[C@@H](NC1CCCCC1)C(=O)N1CCC[C@H]1C(=O)NCc1ccc2c(N)nccc2c1` the same measures were 234 nM and 7 nM.

For the compound `CC(C)C[C@@H](NC(C)C(F)F)C(=O)N1CCC[C@H]1C(=O)NCc1ccc2c(N)nccc2c1` (stereo partly drawn), the IC50 against Coagulation factor XI stood at 339 nM; on Prothrombin, 95 nM.

For `CC(C)C[C@@H](NC1CCCCC1)C(=O)N1C[C@@H](C(F)(F)F)C[C@H]1C(=O)NCc1ccc2c(N)nccc2c1`, the IC50 against Coagulation factor XI was 76 nM; on Prothrombin, over 5000 nM.

With `CC[C@@H](C)[C@@H](NC1CCCCC1)C(=O)N1CCC[C@H]1C(=O)NCc1ccc2c(N)nccc2c1`, half-maximal inhibition at Coagulation factor XI (IC50) was put at 16 nM. Take `CC(C)C[C@@H](NC1CCCCC1)C(=O)N1CCCC[C@H]1C(=O)NCc1ccc2c(N)nccc2c1`: the half-inhibitory concentration (IC50) on Coagulation factor XI came out at 138 nM; against Prothrombin it was 4 nM. For `CC(C)C[C@@H](NC1CCOCC1)C(=O)N1CCC[C@H]1C(=O)NCc1ccc2c(N)nccc2c1` the same measures were 1350 nM and 281 nM.
